Bounds are passed on as bounds.

The first test has as its system HMPV clinical isolate A2 strain TN 94-49. Briefly: HMPV antiviral assay, Method 2 (LLC-MK2 cells with CP-100-356, ATP-Lite). The settings on record: human metapneumovirus, 168 h; hMPV A2 TN/94-49, LLC-MK2 cells with 4 μM CP-100-356, 7 days, ATP-Lite. Type of test: cell-based. On the procedure:
In vitro HMPV antiviral activity was evaluated using the clinical isolate A2 strain TN 94-49 (obtained from Dr. John Williams, Vanderbilt University, Tennessee) and LLC-MK2 cells (Millipore Sigma CB_85062804), an immortalized kidney epithelial cell line from Macaca mulatta. Compounds were resuspended in dimethyl sulfoxide (DMSO) at 10 mM, serially diluted and added to a 384-well source plate. Subsequently, the compounds were diluted and transferred onto 384-well assay plates using the Echo-650 automated liquid handling system (Beckman Coulter, Indiana). The test compounds were assessed in duplicate at a top concentration of 200 nM followed by 2.5-fold serial dilutions to give a total of 10 concentration points. DMSO control wells were also included on the assay plates and were either infected or not, acting as positive and negative controls. A2 TN 94-49 virus infections were performed in-suspension with LLC-MK2 cells. The cells were washed twice with PBS and removed from the cell-culture flask with 0.25% trypsin-EDTA (Thermo Fisher Scientific, MA). The trypsin-EDTA was inactivated by resuspending in 2% fetal bovine serum (FBS) and OptiMEM (ThermoFisher Scientific, MA) containing 1% antibiotic-antimycotic. Cells were pelleted by centrifuging for 5 minutes at 800 rpm, the supernatant was removed, and cells were re-suspended and washed in PBS plus 100 μg/mL CaCl2). This step was performed twice. Cells were then re-suspended in serum-free (SF)-OptiMEM containing 4 μg/mL TPCK-Trypsin (Sigma Aldrich, MO), 1% antibiotic-antimycotic (ThermoFisher Scientific, MA), 100 μg/mL CaCl2), and 4 μM of CP-100-356, a P-glycoprotein inhibitor. Cells were counted and seeded at a density of 5,000 cells/well, 12.5 μL/well. Virus infections were done at a multiplicity of infection (MOI) of 0.16 with 12.5 μL added per well. Virus infections were performed in infection media which contained SF-OptiMEM, 100 μg/mL CaCl2) and 1% antibiotic-antimycotic. HMPV viral stocks are suspended in infection media+5% glycerol, thus an equal volume of infection media+5% glycerol was added to uninfected wells to equalize the final % glycerol across all wells of the assay plate. The final concentration of TPCK-trypsin was 2 μg/mL. The final concentration of CP-100-356 was 2 μM. The assay plates were incubated at 37° C., 5% CO2 for 7 days. After 7 days incubation, 12.5 μL of ATP-Lite (PerkinElmer, MA) was added to each well and the raw luminescence values were determined using the Envision 2104 (Perkin Elmer, MA). The average of the raw luminescence values for the cells and virus only positive control wells was subtracted from all conditions tested and the percent cell health was determined by dividing these values by the average of the cells only negative control wells. EC50 values were then calculated by non-linear regression using a four-parameter curve logistic equation. The curve fit model employed was XLFit Dose Response One Site Model 200: y=(A+(B/(1+((x/C)^D)))), where A is the minimum y value, B is the maximum y value, C is the log EC50 value, and D is the slope factor.
Compound `COc1cc(C(=O)NC[C@](O)(c2cc3c(c(-n4ncc5c4CCCC5)n2)OC[C@]3(C)C(N)=O)C2CC2)cc2oc(C3CC3)nc12` [Example 644] came in with a concentration giving a half-maximal response (EC50) of over 200 nM.

Regarding `COc1cc(C(=O)NC[C@](O)(c2cc3c(c(-n4ccc5ccccc54)n2)OC[C@]3(C)C(N)=O)C(F)(F)F)cc2cn(C(F)F)nc12` [Example 843], the EC50 is under 200 nM.

In the case of `COc1cc(C(=O)NC[C@](O)(c2cc3c(c(-n4ncc5c4CCCC5)n2)OC[C@]3(C)C(N)=O)C2CC2)cc2cn(C3CC3)nc12` [Example 642], the EC50 was over 200 nM.

Compound `COc1cc(C(=O)NC[C@](O)(c2cc3c(c(-c4ccnc(C(F)(F)F)c4F)n2)OC[C@]3(C)C(N)=O)C2CC2)cc2cn(C(F)F)nc12` [Example 799] had an EC50 of under 200 nM.

On to `COc1cc(-c2nc([C@@](O)(CNC(=O)c3cc(OC)c4nn(C5CC5)cc4c3)C3CC3)cc3c2OC[C@]3(C)C(N)=O)ccn1` [Example 832], for which the EC50 is over 200 nM.

As for `COc1cc(C(=O)NC[C@](O)(c2cc3c(c(-n4ncc5c(F)cccc54)n2)OC[C@]3(C)C(N)=O)C2CC2)cc2cc(C3CC3)nn12` [Example 626], the EC50 is under 200 nM.

In turn, `COc1nccc(-c2nc([C@@](O)(CNC(=O)c3cc(OC)c4nn(C(F)F)cc4c3)C(F)(F)F)cc3c2OC[C@]3(C)C(N)=O)c1Cl` [Example 798] yielded an EC50 of under 200 nM.

The compound `COc1cc(C(=O)NC[C@](O)(c2cc3c(c(-c4cccc(F)c4Cl)n2)OC[C@]3(C)C(N)=O)C2(F)CC2)cc2cn(C3CC3)nc12` [Example 617] came in with a half-maximal effective concentration (EC50) of under 200 nM.

With `COc1nccc(-c2nc([C@@](O)(CNC(=O)c3cc(OC)c4nn(C5CC5)cc4c3)C3(F)CC3)cc3c2OC[C@]3(C)C(N)=O)c1Cl` [Example 653], the half-maximal effective concentration (EC50) is under 200 nM.

Consider `COc1cc(C(=O)NC[C@](O)(c2cc3c(c(-c4ccnc(C)c4Cl)n2)OC[C@]3(C)C(N)=O)C(F)(F)F)cc2cn(C3CC3)nc12` [Example 883], for which the concentration giving a half-maximal response (EC50) was over 200 nM.

In turn, `COc1cc(C(=O)NC[C@](O)(c2cc3c(c(-c4ccnc(OCC(C)C)c4Cl)n2)OC[C@]3(C)C(N)=O)C2CC2)cc2cn(C3CC3)nc12` [Example 804] registered a 50% effective concentration (EC50) of over 200 nM.

`COc1cc(C(=O)NC[C@@](O)(c2ccccc2)c2cc3c(c(-c4ccnc(F)c4Cl)n2)OC[C@]3(C)C(N)=O)cc2cn(C(F)F)nc12` [Example 663] showed a concentration giving a half-maximal response (EC50) of under 200 nM.

The test is the same for the next values; noted with them: human metapneumovirus; hMPV A2 TN/94-49, LLC-MK2 cells with CP-100-356, Method 2.
`COc1cc(C(=O)NC[C@](O)(c2cc3c(c(-c4ccnc(C)c4Cl)n2)OC[C@]3(C)C(N)=O)C2(F)CC2)cc2oc(C3(F)CC3)nc12` [Example 532]: the concentration giving a half-maximal response (EC50) is over 200 nM.

In turn, `COc1cc(C(=O)NC[C@](O)(c2cc3c(c(-c4ccnc(C(F)(F)F)c4Cl)n2)OC[C@]3(C)C(N)=O)C2CC2)cn2cc(C3CC3)nc12` [Example 580] displayed an EC50 of under 200 nM.

Consider `COc1cc(C(=O)NC[C@](O)(c2cc3c(c(-c4ccnc(C)c4F)n2)OC[C@]3(C)C(N)=O)C2CC2)cc2cn(C3CC3)nc12` [Example 428], for which the half-maximal effective concentration (EC50) was under 200 nM.

In the case of `COc1cc(C(=O)NC[C@](O)(c2cc3c(c(-c4ccnc(F)c4)n2)OC[C@]3(C)C(N)=O)C2CC2)cc2cn(C3CC3)nc12` [Example 121], the EC50 was over 200 nM.

On to `COc1cc(C(=O)NC[C@@](O)(c2ccccc2)c2cc3c(c(-c4cc(Cl)c(F)cc4F)n2)OC[C@]3(C)C(N)=O)cc2oc(C3(F)CC3)nc12` [Example 241], for which the 50% effective concentration (EC50) was under 200 nM.

Consider `COc1cc(C(=O)NCC(O)(c2cc3c(c(-c4cc(Cl)c(F)cc4F)n2)OC[C@]3(C)C(N)=O)c2ccc(Cl)s2)cc2cn(C3CC3)nc12` (stereo partly shown) [Example 472], for which the EC50 is over 200 nM.

For the compound `COc1cc(C(=O)NC[C@](O)(c2cc3c(c(-c4cc(C(F)(F)F)ncc4F)n2)OC[C@]3(C)C(N)=O)C2CC2)cc2cc(C3CC3)nn12` [Example 354], the half-maximal effective concentration (EC50) is under 200 nM.

With `C[C@]1(C(N)=O)COc2c1cc([C@@](O)(CNC(=O)c1cc(Cl)c3nn(C4CC4)cc3c1)C(F)(F)F)nc2-c1ccnc(C(F)F)c1Cl` [Example 549], the EC50 was under 200 nM.

With `COc1cc(C(=O)NC[C@@](O)(c2ccc(S(C)(=O)=O)cc2)c2cc3c(c(-c4cc(Cl)c(F)cc4F)n2)OC[C@]3(C)C(N)=O)cc2cn(C3CC3)nc12` [Example 482], the EC50 was over 200 nM.

Take `COc1cc(C(=O)NC[C@@](O)(c2cccc(C(C)=O)c2)c2cc3c(c(-c4cccc(Cl)c4Cl)n2)OC[C@]3(C)C(N)=O)cc2cn(C3CC3)nc12` [Example 493]: the EC50 was under 200 nM.

`COc1cc(C(=O)NC[C@@](O)(c2ccc(F)cc2)c2cc3c(c(-c4ccnc(C(F)F)c4Cl)n2)OC[C@]3(C)C(N)=O)cc2cn(C3(F)CC3)nc12` [Example 570] registered an EC50 of under 200 nM.

In turn, `COc1cc(C(=O)NC[C@@](O)(c2ccc(F)cc2)c2cc3c(c(-c4ccnc(C(F)(F)F)c4F)n2)OC[C@]3(C)C(N)=O)cc2cn(C(F)F)nc12` [Example 572] returned an EC50 of under 200 nM.

`COc1cc(C(=O)NC[C@@](O)(c2ccccc2)c2cc3c(c(-c4cccc(F)c4F)n2)OC[C@]3(C)C(N)=O)cc2cn(C3(F)CC3)nc12` [Example 367] came in with a concentration for a half-maximal effect (EC50) of under 200 nM.

In turn, `COc1cccc([C@](O)(CNC(=O)c2cc(OC)c3nn(C4CC4)cc3c2)c2cc3c(c(-c4cccc(Cl)c4Cl)n2)OC[C@]3(C)C(N)=O)n1` [Example 496] had an EC50 of under 200 nM.

Regarding `COc1cc(C(=O)NC[C@@](O)(c2ccccc2)c2cc3c(c(-c4cc(Cl)c(F)cc4F)n2)OC[C@]3(C)C(N)=O)cc2cc(Cl)nnc12` [Example 113], the EC50 was under 200 nM.

Regarding `C[C@]1(C(N)=O)COc2c1cc([C@@](O)(CNC(=O)c1cc(OC3CC3)c3nn(C4(F)CC4)cc3c1)C(F)(F)F)nc2-c1ccnc(C(F)(F)F)c1Cl` [Example 595], the concentration for a half-maximal effect (EC50) was under 200 nM.

For `COc1cc(C(=O)NC[C@@](O)(c2cccc(F)c2)c2cc3c(c(-c4ccnc(C)c4Cl)n2)OC[C@]3(C)C(N)=O)cc2cn(C(F)F)nc12` [Example 538], the EC50 was under 200 nM.

Compound `COc1cc(C(=O)NC[C@@](O)(c2cccc(F)c2)c2cc3c(c(-c4ccnc(C)c4Cl)n2)OC[C@]3(C)C(N)=O)cc2cn(C3(F)CC3)nc12` [Example 539] had an EC50 of under 200 nM.

In the case of `COc1cc([C@](O)(CNC(=O)c2cc(OC)c3nn(C4CC4)cc3c2)c2cc3c(c(-c4cccc(Cl)c4Cl)n2)OC[C@]3(C)C(N)=O)ccn1` [Example 494], the EC50 is under 200 nM.

Take `C[C@]1(C(N)=O)COc2c1cc([C@@](O)(CNC(=O)c1cc(OC3CC3)c3nn(C4CC4)cc3c1)c1ccccc1)nc2-c1cc(Cl)c(F)cc1F` [Example 98]: the concentration giving a half-maximal response (EC50) is under 200 nM.

`COc1nccc(-c2nc([C@@](O)(CNC(=O)c3cc(OC4CC4)c4nn(C5(F)CC5)cc4c3)C(F)(F)F)cc3c2OC[C@]3(C)C(N)=O)c1Cl` [Example 588] displayed an EC50 of under 200 nM.

`COc1cc(C(=O)NCC(O)(c2cc(F)nc(F)c2)c2cc3c(c(-c4cccc(Cl)c4Cl)n2)OC[C@]3(C)C(N)=O)cc2cn(C(F)F)nc12` (stereo partly shown) [Example 500] yielded an EC50 of under 200 nM.

As to `COc1cc(C(=O)NC[C@](O)(c2cc3c(c(-c4ccnc(F)c4Cl)n2)OC[C@]3(C)C(N)=O)C2CC2)cc2oc(C3CC3)nc12` [Example 208], the EC50 was under 200 nM.

Turning to `COc1nccc(-c2nc([C@@](O)(CNC(=O)c3cc(OC4CC4)c4nn(C5CC5)cc4c3)C(F)(F)F)cc3c2OC[C@]3(C)C(N)=O)c1Cl` [Example 586], the EC50 was under 200 nM.

The compound `COc1cc(C(=O)NC[C@@](O)(c2cccc(F)c2)c2cc3c(c(-c4ccnc(C)c4Cl)n2)OC[C@]3(C)C(N)=O)cc2oc(C3CC3)nc12` [Example 540] yielded an EC50 of under 200 nM.

With `COc1nccc(-c2nc([C@@](O)(CNC(=O)c3cc(Cl)c4nn(C5CC5)cc4c3)C(F)(F)F)cc3c2OC[C@]3(C)C(N)=O)c1Cl` [Example 544], the EC50 was under 200 nM.

`C[C@]1(C(N)=O)COc2c1cc([C@@](O)(CNC(=O)c1cc(OC3CC3)n3nc(C4CC4)cc3c1)c1ccccc1)nc2-c1cc(Cl)c(F)cc1F` [Example 191]: the concentration for a half-maximal effect (EC50) is under 200 nM.

`COc1nccc(-c2nc([C@@](O)(CNC(=O)c3cc(OC)c4nc(C)sc4c3)C(F)(F)F)cc3c2OC[C@]3(C)C(N)=O)c1Cl` [Example 546] came in with a concentration giving a half-maximal response (EC50) of under 200 nM.

For orientation: EC50 means the midpoint of the concentration-response curve.

(Values after patent US20240368174A1, “Antiviral Heterocyclic Compounds” (Enanta Pharmaceuticals, Inc., priority 2023, published 2024).)
